# Test results from patent US9340590B2 (priority 2011, dated 2016).
# pIC50: −log10 of the molar value. Where two headings read alike, the source gives them in different places. Positions of bridges follow the written chain, without caps; N, C: chain ends. Non-standard residues stand in square brackets, D forms with d. Residues, ends and D or L forms follow the SMILES beside them. Pra = C#CC[C@H](N)C(=O)O; Abu = CC[C@H](N)C(=O)O
# Key:
# hNav1.4 = hNav1.4 (Homo sapiens, UniProt P35499); experiment: cell-based; conditions: IonWorks Quattro, read-out: IWQ Use Nav1.4
# hNav1.5 = hNav1.5 (Homo sapiens, UniProt Q14524); experiment: cell-based; conditions: IonWorks Quattro, read-out: IWQ Use Nav1.5
# hNav1.3 = hNav1.3 (Homo sapiens, UniProt Q9NY46); experiment: cell-based; conditions: IonWorks Quattro, read-out: IWQ Use Nav1.3
# hNav1.7 = hNav1.7 (Homo sapiens, UniProt Q15858); experiment: cell-based; assay type: cell-based; conditions: for pIC50: IonWorks Quattro, read-out: IWQ Use Nav1.7
# [1] = test system: locomotor activity in male CD-1 mice; conditions: 5 mg/kg s.c.; for total basic movement / total fine movement / total rearing / total time rearing: later studies (FIGS. 99-110), 1-hour pre-treatment
# [2] = clamped to −110 mV, depolarized to −10 mV, 5 min after compound, n=2
# Chain of hNav1.7 (Q15858 whole entry, looked up): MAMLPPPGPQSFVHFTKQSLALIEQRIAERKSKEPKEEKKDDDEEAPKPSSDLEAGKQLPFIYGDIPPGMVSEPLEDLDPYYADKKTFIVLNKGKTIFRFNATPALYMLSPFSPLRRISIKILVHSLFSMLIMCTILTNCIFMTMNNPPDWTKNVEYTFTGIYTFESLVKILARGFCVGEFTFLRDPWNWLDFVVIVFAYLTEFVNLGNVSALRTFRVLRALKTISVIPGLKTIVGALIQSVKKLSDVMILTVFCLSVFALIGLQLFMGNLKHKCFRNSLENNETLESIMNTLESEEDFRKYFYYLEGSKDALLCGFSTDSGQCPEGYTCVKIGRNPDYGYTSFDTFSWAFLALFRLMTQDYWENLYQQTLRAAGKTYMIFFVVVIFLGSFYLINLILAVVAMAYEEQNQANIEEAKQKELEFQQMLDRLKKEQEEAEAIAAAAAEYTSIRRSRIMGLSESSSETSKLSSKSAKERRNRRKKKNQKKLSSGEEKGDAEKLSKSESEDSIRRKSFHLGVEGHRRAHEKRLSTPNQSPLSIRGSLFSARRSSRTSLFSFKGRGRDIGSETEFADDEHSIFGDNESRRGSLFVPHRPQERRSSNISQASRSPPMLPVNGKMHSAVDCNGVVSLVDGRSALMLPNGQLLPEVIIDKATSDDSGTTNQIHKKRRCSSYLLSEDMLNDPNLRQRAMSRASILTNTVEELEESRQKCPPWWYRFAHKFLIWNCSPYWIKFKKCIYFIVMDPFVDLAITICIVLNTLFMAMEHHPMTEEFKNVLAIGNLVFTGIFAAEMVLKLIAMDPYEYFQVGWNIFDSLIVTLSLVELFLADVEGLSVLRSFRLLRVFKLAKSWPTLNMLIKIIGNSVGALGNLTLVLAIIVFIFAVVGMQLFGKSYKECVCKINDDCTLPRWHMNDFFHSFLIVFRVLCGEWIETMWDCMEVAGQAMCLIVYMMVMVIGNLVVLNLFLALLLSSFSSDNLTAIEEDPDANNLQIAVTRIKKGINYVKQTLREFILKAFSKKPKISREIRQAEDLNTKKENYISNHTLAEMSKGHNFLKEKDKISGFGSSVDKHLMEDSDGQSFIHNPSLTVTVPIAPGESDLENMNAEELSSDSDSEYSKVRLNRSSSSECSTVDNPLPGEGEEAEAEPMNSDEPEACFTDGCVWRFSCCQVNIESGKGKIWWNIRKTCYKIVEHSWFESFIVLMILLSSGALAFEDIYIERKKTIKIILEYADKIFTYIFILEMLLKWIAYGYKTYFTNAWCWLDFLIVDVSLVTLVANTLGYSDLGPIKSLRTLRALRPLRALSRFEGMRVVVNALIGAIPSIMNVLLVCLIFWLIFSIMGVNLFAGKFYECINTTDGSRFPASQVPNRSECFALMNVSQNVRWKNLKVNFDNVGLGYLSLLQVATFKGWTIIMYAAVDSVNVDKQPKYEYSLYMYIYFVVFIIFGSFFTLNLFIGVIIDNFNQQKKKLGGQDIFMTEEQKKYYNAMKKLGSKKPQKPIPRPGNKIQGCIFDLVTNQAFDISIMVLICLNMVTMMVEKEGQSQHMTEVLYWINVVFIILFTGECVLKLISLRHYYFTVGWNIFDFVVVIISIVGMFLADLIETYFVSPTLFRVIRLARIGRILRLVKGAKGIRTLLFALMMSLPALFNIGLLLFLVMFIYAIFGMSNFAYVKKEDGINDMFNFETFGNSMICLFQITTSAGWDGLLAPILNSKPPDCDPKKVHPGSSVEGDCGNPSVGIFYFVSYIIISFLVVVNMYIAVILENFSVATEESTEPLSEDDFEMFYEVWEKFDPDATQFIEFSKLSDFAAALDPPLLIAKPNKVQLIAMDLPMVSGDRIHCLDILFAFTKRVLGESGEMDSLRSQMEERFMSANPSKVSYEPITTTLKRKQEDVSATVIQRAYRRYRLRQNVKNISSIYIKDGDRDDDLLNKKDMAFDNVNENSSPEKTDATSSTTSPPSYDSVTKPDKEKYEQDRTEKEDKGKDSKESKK
# Chain of hNav1.3 (Q9NY46 whole entry, looked up): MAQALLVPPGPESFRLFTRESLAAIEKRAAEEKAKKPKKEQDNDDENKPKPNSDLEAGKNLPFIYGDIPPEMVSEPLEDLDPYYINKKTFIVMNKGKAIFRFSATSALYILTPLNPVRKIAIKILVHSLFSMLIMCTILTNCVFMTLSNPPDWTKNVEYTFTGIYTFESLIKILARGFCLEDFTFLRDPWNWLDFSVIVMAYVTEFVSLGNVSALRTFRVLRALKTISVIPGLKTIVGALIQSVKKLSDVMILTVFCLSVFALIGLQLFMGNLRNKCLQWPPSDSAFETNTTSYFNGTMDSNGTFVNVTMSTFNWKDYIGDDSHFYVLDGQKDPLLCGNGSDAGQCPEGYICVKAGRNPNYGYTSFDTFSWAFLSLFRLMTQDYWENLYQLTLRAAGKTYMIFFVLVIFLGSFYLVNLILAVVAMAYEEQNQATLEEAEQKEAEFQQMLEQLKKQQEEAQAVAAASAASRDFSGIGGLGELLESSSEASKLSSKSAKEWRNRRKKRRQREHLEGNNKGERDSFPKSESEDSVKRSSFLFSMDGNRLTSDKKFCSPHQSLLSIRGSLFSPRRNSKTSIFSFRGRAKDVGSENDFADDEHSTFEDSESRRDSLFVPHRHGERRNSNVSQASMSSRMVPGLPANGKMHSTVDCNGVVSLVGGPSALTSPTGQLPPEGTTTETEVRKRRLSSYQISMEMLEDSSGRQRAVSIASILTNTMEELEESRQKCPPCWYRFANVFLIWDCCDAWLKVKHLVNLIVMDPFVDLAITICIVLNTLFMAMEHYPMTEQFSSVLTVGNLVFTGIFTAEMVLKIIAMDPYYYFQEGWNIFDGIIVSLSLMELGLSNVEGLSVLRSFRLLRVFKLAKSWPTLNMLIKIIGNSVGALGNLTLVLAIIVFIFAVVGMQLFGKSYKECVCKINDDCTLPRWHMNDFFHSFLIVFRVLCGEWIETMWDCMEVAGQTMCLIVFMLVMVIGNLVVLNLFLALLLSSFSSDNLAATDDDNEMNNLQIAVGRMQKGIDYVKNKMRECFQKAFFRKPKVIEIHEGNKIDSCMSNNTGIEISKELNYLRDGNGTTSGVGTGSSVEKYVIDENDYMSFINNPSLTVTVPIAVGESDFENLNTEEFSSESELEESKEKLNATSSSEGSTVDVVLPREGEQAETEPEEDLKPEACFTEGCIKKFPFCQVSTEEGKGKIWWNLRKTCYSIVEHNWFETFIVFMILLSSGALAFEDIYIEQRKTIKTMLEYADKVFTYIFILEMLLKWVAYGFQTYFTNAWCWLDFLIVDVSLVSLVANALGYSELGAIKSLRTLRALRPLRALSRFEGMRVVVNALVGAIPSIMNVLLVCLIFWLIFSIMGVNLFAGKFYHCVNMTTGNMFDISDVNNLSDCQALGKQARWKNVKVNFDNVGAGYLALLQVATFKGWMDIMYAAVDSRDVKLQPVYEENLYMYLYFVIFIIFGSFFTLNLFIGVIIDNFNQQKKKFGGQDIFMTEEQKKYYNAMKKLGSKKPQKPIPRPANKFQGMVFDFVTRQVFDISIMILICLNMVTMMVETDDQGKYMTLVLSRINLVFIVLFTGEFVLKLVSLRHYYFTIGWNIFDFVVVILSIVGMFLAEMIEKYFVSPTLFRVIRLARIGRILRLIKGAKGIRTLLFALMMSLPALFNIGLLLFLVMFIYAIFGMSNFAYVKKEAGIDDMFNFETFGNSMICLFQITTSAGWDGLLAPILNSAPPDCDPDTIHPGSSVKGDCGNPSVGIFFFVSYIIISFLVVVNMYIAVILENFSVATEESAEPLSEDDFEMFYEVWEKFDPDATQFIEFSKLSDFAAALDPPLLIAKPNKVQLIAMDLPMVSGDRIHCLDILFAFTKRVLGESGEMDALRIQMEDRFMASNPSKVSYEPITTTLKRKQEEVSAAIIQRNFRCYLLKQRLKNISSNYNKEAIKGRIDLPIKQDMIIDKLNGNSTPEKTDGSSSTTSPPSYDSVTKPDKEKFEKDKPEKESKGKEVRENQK
smiles,measurement,setting,value
"C#CC[C@@H]1NC(=O)[C@H](CC(=O)O)NC(=O)[C@@H]2CCCN2C(=O)[C@H](CCC(=O)O)NC(=O)[C@@H]2CSSC[C@@H]3NC(=O)[C@H](C(C)C)NC(=O)[C@H](CC(C)C)NC(=O)[C@H](CC(N)=O)NC(=O)[C@@H]4CCCN4C(=O)[C@H](CCCNC(=N)N)NC(=O)[C@H](CSSC[C@H](NC(=O)[C@@H](N)CC(=O)O)C(=O)N[C@@H](CC(C)C)C(=O)NCC(=O)N[C@@H](C)C(=O)N[C@@H](CC(C)C)C(=O)N[C@@H](CCCNC(=N)N)C(=O)N[C@@H](CCCCN)C(=O)N2)NC(=O)[C@H](CSSC[C@@H](C(=O)N[C@@H](CCCCN)C(=O)N[C@@H](Cc2ccc(O)cc2)C(=O)N[C@H](C(=O)N[C@@H](Cc2ccccc2)C(N)=O)C(C)C)NC(=O)[C@H](Cc2c[nH]c4ccccc24)NC(=O)[C@H](CCCNC(=N)N)NC(=O)[C@H](Cc2c[nH]cn2)NC(=O)[C@H](CC(C)C)NC(=O)[C@H](CCCNC(=N)N)NC(=O)[C@H](CO)NC3=O)NC(=O)[C@H](CCCCN)NC(=O)[C@H](CC(=O)O)NC1=O [compound 800] (H-DCLGALRKCEPD[Pra]DKCCRPNLVCSRLHRWCKYVF-NH2; disulfide 2-17, 9-23, 16-30)",pIC50,"hNav1.4; use-dependent block, hNav1.4",< 4.30
same,pIC50,"hNav1.5; use-dependent block, hNav1.5",< 4.30
same,pIC50,"hNav1.3; use-dependent block, hNav1.3",5.85
same,pIC50,"hNav1.7; use-dependent block, hNav1.7",6.15
same,Nav1.7/Nav1.3,hNav1.7; ratio of IWQ Use values Nav1.7 to Nav1.3,0.5
"CC(C)C[C@@H]1NC(=O)[C@@H](NC(=O)[C@@H](N)CC(=O)O)CSSC[C@@H]2NC(=O)[C@@H]3CSSC[C@@H](C(=O)N[C@@H](CCCCN)C(=O)N[C@@H](Cc4ccc(O)cc4)C(=O)N[C@@H](CCCCN)C(=O)N[C@@H](CC(C)C)C(=O)N[C@@H](Cc4c[nH]c5ccccc45)C(=O)O)NC(=O)[C@H](Cc4c[nH]c5ccccc45)NC(=O)[C@H](CCCCN)NC(=O)[C@H](CC(=O)O)NC(=O)[C@H](CCCNC(=N)N)NC(=O)[C@H](CCCNC(=N)N)NC(=O)[C@H](CC(N)=O)NC(=O)[C@H](CSSC[C@H](NC(=O)CNC(=O)[C@H](CCCCN)NC(=O)[C@H](Cc4ccccc4)NC(=O)[C@H](Cc4c[nH]c5ccccc45)NC(=O)CNC1=O)C(=O)N[C@@H](CC(=O)O)C(=O)N1CCC[C@H]1C(=O)N[C@@H](CC(=O)O)C(=O)N[C@@H](CC(N)=O)C(=O)N[C@@H](CC(=O)O)C(=O)N[C@@H](CCCCN)C(=O)N3)NC(=O)[C@H](CCCCN)NC(=O)[C@H](Cc1ccc(O)cc1)NC(=O)[C@H](CC(N)=O)NC(=O)[C@H](CCC(=O)O)NC2=O [SEQ ID NO: 474] (H-DCLGWFKGCDPDNDKCCENYKCNRRDKWCKYKLW-OH; disulfide 2-17, 9-22, 16-29)",pIC50,hNav1.4; [2],4.98
same,pIC50,hNav1.5; [2],5.10
same,pIC50,hNav1.3; [2],5.85
same,pIC50,hNav1.7; [2],5.40
"CC[C@H](C)[C@@H]1NC(=O)[C@@H]2CSSC[C@@H]3NC(=O)[C@H](C(C)C)NC(=O)[C@H](CC(C)C)NC(=O)[C@H](CC(N)=O)NC(=O)[C@@H]4CCCN4C(=O)[C@H](CCCNC(=N)N)NC(=O)[C@H](CSSC[C@H](NC(=O)[C@H](CC(=O)O)NC(=O)[C@H](CO)NC(=O)CN)C(=O)N[C@@H](CC(C)C)C(=O)NCC(=O)N[C@@H](C)C(=O)N[C@@H](CC(C)C)C(=O)N[C@@H](CCCNC(=N)N)C(=O)N[C@@H](CCCCN)C(=O)N2)NC(=O)[C@H](CSSC[C@@H](C(=O)N[C@@H](CCCCN)C(=O)N[C@@H](Cc2ccc(O)cc2)C(=O)N[C@H](C(=O)N[C@@H](Cc2ccccc2)C(=O)N[C@@H](Cc2c[nH]c4ccccc24)C(=O)O)C(C)C)NC(=O)[C@H](Cc2c[nH]c4ccccc24)NC(=O)[C@H](CCCNC(=N)N)NC(=O)[C@H](Cc2c[nH]cn2)NC(=O)[C@H]([C@@H](C)O)NC(=O)[C@H](CCCNC(=N)N)NC(=O)[C@H](CO)NC3=O)NC(=O)[C@H](CCCCN)NC(=O)[C@H](CC(=O)O)NC(=O)[C@H](CC(N)=O)NC(=O)[C@H](CC(=O)O)NC(=O)[C@@H]2CCCN2C1=O [compound 816] (H-GSDCLGALRKCIPDNDKCCRPNLVCSRTHRWCKYVFW-OH; disulfide 4-19, 11-25, 18-32)",pIC50,"hNav1.4; use-dependent block, hNav1.4",< 5.30
same,pIC50,"hNav1.5; use-dependent block, hNav1.5",< 5.30
same,pIC50,"hNav1.3; use-dependent block, hNav1.3",< 5.30
same,pIC50,"hNav1.7; use-dependent block, hNav1.7",< 5.30
"CC[C@@H]1NC(=O)[C@@H]2CSSC[C@@H](C(=O)N[C@@H](CCCCN)C(=O)N[C@@H](Cc3ccc(O)cc3)C(=O)N[C@H](C(=O)N[C@@H](Cc3ccccc3)C(N)=O)C(C)C)NC(=O)[C@H](Cc3c[nH]c4ccccc34)NC(=O)[C@H](CCC(=O)O)NC(=O)[C@H](Cc3c[nH]cn3)NC(=O)[C@H]([C@@H](C)O)NC(=O)[C@H](CCCNC(=N)N)NC(=O)[C@H](CO)NC(=O)[C@H](CSSC[C@H](NC(=O)[C@H](CCCCN)NC(=O)[C@H](CCCNC(=N)N)NC(=O)[C@H](CC(C)C)NC(=O)[C@H](C)NC(=O)CNC(=O)[C@H](CC(C)C)NC(=O)[C@H](CC)NC(=O)[C@@H](N)CC(=O)O)C(=O)N[C@@H]([C@@H](C)CC)C(=O)N3CCC[C@H]3C(=O)N[C@@H](CC(=O)O)C(=O)N[C@@H](CC(N)=O)C(=O)N[C@@H](CC(=O)O)C(=O)N[C@@H](CCCCN)C(=O)N2)NC(=O)[C@H](C(C)C)NC(=O)[C@H](CC(C)C)NC(=O)[C@H](CC(N)=O)NC(=O)[C@@H]2CCCN2C(=O)[C@H](CCCNC(=N)N)NC1=O [compound 719] (H-D[Abu]LGALRKCIPDNDKC[Abu]RPNLVCSRTHEWCKYVF-NH2; disulfide 9-23, 16-30)",pIC50,"hNav1.4; use-dependent block, hNav1.4",< 4.30
same,pIC50,"hNav1.5; use-dependent block, hNav1.5",< 4.30
same,pIC50,"hNav1.3; use-dependent block, hNav1.3",< 5.30
same,pIC50,"hNav1.7; use-dependent block, hNav1.7",5.37
"CC(C)C[C@H](NC(=O)[C@H](CCCCN)NC(=O)[C@H](Cc1ccc(O)cc1)NC(=O)[C@H](CCCCN)NC(=O)[C@@H]1CSSC[C@@H]2NC(=O)[C@H](CCCCN)NC(=O)[C@H](CC(=O)O)NC(=O)[C@H](CC(N)=O)NC(=O)[C@H](CC(=O)O)NC(=O)[C@@H]3CCCN3C(=O)[C@H](CC(=O)O)NC(=O)[C@@H]3CSSC[C@H](NC(=O)[C@H](CCCCN)NC(=O)[C@H](Cc4ccc(O)cc4)NC(=O)CNC(=O)[C@H](CCC(=O)O)NC(=O)[C@H](CSSC[C@H](NC(=O)[C@@H](N)CC(=O)O)C(=O)N[C@@H](CC(C)C)C(=O)NCC(=O)N[C@@H](Cc4c[nH]c5ccccc45)C(=O)N[C@@H](Cc4ccccc4)C(=O)N[C@@H](CCCCN)C(=O)NCC(=O)N3)NC2=O)C(=O)N[C@@H](CC(N)=O)C(=O)N[C@@H](CCCNC(=N)N)C(=O)N[C@@H](CCCNC(=N)N)C(=O)N[C@@H](CC(=O)O)C(=O)N[C@@H](CCCCN)C(=O)N[C@@H](Cc2c[nH]c3ccccc23)C(=O)N1)C(N)=O [SEQ ID NO: 468] (H-DCLGWFKGCDPDNDKCCEGYKCNRRDKWCKYKL-NH2; disulfide 2-17, 9-22, 16-29)",pIC50,hNav1.4; [2],4.70
same,pIC50,hNav1.5; [2],5.11
same,pIC50,hNav1.3; [2],5.03
same,pIC50,hNav1.7; [2],5.05
"CC[C@H](C)[C@@H]1NC(=O)[C@@H]2CSSC[C@@H]3NC(=O)[C@H](C(C)C)NC(=O)[C@H](CC(C)C)NC(=O)[C@H](CC(N)=O)NC(=O)[C@@H]4CCCN4C(=O)[C@H](CCCNC(=N)N)NC(=O)[C@H](CSSC[C@H](NC(=O)[C@@H](N)CC(=O)O)C(=O)N[C@@H](CC(C)C)C(=O)NCC(=O)N[C@@H](Cc4ccccc4)C(=O)N[C@@H](CCSC)C(=O)N[C@@H](CCCNC(=N)N)C(=O)N[C@@H](CCCCN)C(=O)N2)NC(=O)[C@H](CSSC[C@@H](C(=O)N[C@@H](CCCCN)C(=O)N[C@@H](Cc2ccc(O)cc2)C(=O)N[C@H](C(=O)N[C@@H](Cc2ccccc2)C(N)=O)C(C)C)NC(=O)[C@H](Cc2c[nH]c4ccccc24)NC(=O)[C@H](CCC(=O)O)NC(=O)[C@H](Cc2cnc[nH]2)NC(=O)[C@H]([C@@H](C)O)NC(=O)[C@H](CCCNC(=N)N)NC(=O)[C@H](CO)NC3=O)NC(=O)[C@H](CCCCN)NC(=O)[C@H](CC(=O)O)NC(=O)[C@H](CC(N)=O)NC(=O)[C@H](CC(=O)O)NC(=O)[C@@H]2CCCN2C1=O [[Glu28]GpTx-1(1-34)] (H-DCLGFMRKCIPDNDKCCRPNLVCSRTHEWCKYVF-NH2; disulfide 2-17, 9-23, 16-30)",locomotor activity in the open field analysis,[1],significantly reduced locomotor activity
same,total basic movement,[1],significantly reduced
same,total fine movement,[1],significantly reduced
same,total rearing,[1],significantly reduced
same,total time rearing,[1],significantly reduced
"CC[C@H](C)[C@@H]1NC(=O)[C@@H]2CSSC[C@@H]3NC(=O)[C@H](C(C)C)NC(=O)[C@H](CC(C)C)NC(=O)[C@H](CC(N)=O)NC(=O)[C@@H]4CCCN4C(=O)[C@H](CCCNC(=N)N)NC(=O)[C@H](CSSC[C@H](NC(=O)[C@@H](N)CC(=O)O)C(=O)N[C@@H](CC(C)C)C(=O)NCC(=O)N[C@@H](Cc4ccccc4)C(=O)N[C@@H](CCSC)C(=O)N[C@@H](CCCNC(=N)N)C(=O)N[C@@H](CCCCN)C(=O)N2)NC(=O)[C@H](CSSC[C@@H](C(=O)N[C@@H](CCCCN)C(=O)N[C@@H](Cc2ccc(O)cc2)C(=O)N[C@H](C(=O)N[C@@H](Cc2ccccc2)C(N)=O)C(C)C)NC(=O)[C@H](CCC(=O)O)NC(=O)[C@H](CCCCN)NC(=O)[C@H](Cc2cnc[nH]2)NC(=O)[C@H]([C@@H](C)O)NC(=O)[C@H](CCCNC(=N)N)NC(=O)[C@H](CO)NC3=O)NC(=O)[C@H](CCCCN)NC(=O)[C@H](CC(=O)O)NC(=O)[C@H](CC(N)=O)NC(=O)[C@H](CC(=O)O)NC(=O)[C@@H]2CCCN2C1=O [[Glu29]GpTx-1(1-34)] (H-DCLGFMRKCIPDNDKCCRPNLVCSRTHKECKYVF-NH2; disulfide 2-17, 9-23, 16-30)",total basic movement,[1],did not significantly decrease
same,total fine movement,[1],not significantly affected
same,total rearing,[1],did not significantly decrease
same,total time rearing,[1],not significantly affected
